Tested on: Grm2
Assay: AAV-delivered TALE / LITE modulation of Grm2 mRNA in primary cortical neurons, qRT-PCR
Format: cell-based, mouse
Details: neurons expressing only one LITE component
Procedure: FIG. 18 depicts metabotropic glutamate receptor 2 (mGlur2) LITE activity in mouse cortical neuron culture. A mGluR2 targeting LITE was constructed via the plasmids pAAV-human Synapsin I promoter (hSyn)-HA-TALE(mGluR2)-CIB1 and pAAV-hSyn-CRY2PHR-VP64-2A-GFP. These fusion constructs were then packaged into adeno associated viral vectors (AAV). Additionally, AAV carrying hSyn-TALE-VP64-2A-GFP and GFP only were produced. Embryonic mouse (E16) cortical cultures were plated on Poly-L-lysine coated 24 well plates. After 5 days in vitro neural cultures were co-transduced with a mixture of TALE(mGluR2)-CIB1 and CRY2PHR-VP64 AAV stocks. Control samples were transduced with either TALE(mGluR2)-VP64 AAV or GFP AAV. 6 days after AAV transduction, experimental samples were stimulated using either of two light pulsing paradigms: 0.5 s per min and 0.25 sec per 30 sec. Neurons were stimulated for 24 h and harvested for qPCR analysis. All mGluR2 expression levels were normalized to the respective stimulated GFP control. […]
Light stimulation was started 6 days after AAV transduction (DIV 11) with an intensity of 5 mW/cm^2, duty cycle of 0.8% (250 ms pulses at 0.033 Hz or 500 ms pulses at 0.016 Hz), 466 nm blue light for 24 h unless indicated otherwise in figure legends. […] Relative mRNA levels were measured by quantitative real-time PCR (qRT-PCR) using TaqMan probes as described above for Neuro 2a cells. […]

“CRY2PHR-VP64: LITE effector component alone” was tested, and the “Grm2 mRNA versus GFP controls, single LITE component” value was “did not significantly affect transcription”.

— patent publication US20190203212A1, “INDUCIBLE DNA BINDING PROTEINS AND GENOME PERTURBATION TOOLS AND APPLICATIONS THEREOF” (Massachusetts Institute of Technology, priority 2013, published 2019)
